Square brackets hold non-standard residues; d marks the D form. Ends that are not written are not given here. Peptide text beside a SMILES is read from it. hArg = N=C(N)NCCCC[C@H](N)C(=O)O; Nle = CCCC[C@H](N)C(=O)O; Aib = CC(C)(N)C(=O)O
Key:
[1] = target: T1, human P1R (Homo sapiens, UniProt Q03431); test: cAMP stimulation in HKRK-B28 cells; type: cell-based; details: basal 4.0 ± 0.1 pmole/well not subtracted
T1 construct: expressed in transfected cells; host or cells: HKRK-B28 (porcine kidney LLC-PK1, stably transfected)
T1 sequence (Q03431 27-593): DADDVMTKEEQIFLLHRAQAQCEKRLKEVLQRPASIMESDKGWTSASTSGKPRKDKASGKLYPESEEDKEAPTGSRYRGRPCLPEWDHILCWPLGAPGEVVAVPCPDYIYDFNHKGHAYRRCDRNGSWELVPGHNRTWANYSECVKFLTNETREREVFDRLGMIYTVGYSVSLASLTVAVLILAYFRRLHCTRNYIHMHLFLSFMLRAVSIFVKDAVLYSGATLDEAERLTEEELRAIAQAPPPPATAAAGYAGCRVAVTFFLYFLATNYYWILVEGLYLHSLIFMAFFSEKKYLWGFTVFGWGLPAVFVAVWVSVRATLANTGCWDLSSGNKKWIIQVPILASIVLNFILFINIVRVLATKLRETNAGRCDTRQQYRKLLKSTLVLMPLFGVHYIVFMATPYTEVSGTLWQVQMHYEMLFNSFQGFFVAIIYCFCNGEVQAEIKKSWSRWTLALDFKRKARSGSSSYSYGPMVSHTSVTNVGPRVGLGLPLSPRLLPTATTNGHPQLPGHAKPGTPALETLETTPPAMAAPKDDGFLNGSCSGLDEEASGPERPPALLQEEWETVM
Method: (§1) Cell Culture. The cell line HKRK-B28 (Takasu, H., et al., J. Bone Miner. Res. 14:11-20 (1999)) was derived from the porcine kidney cell line, LLC-PK1 by stable transfection with plasmid DNA encoding the human P1R and expresses ˜280,000 receptors per cell. These cells, as well as COS-7 cells and SaOS-2-B10 cells, were cultured at […] in T-75 flasks ([…]) in Dulbecco's modified Eagle's medium (DMEM) supplemented with fetal bovine serum (10%), penicillin G (20 units/ml), streptomycin sulfate (20 μg/ml) and amphotericin B (0.05 μg/ml) in a humidified atmosphere containing 5% CO2. Stock solutions of EGTA/trypsin and antibiotics were from GIBCO; fetal bovine serum was from Hyclone Laboratories (Logan, Utah). COS-7 cells sub-cultured in 24-well plates were transfected with plasmid DNA (200 ng per well) encoding the wild-type human P1R or truncated human P1R deleted for residues (24-181) (Shimizu, M., et al., J. Biol. Chem. 275:21836-21843 (2000)) that was purified by cesium chloride/ethidium bromide density gradient centrifugation, and FuGENE 6 transfection reagent (Roche Indianapolis Ind.) according to the manufacturer's recommended procedure. All cells, in 24-well plates, were treated with fresh media and shifted to 33° C. for 12 to 24 h prior to assay.
(§2) cAMP Stimulation. Stimulation of cells with peptide analogs was performed in 24-well plates. Cells were rinsed with 0.5 mL of binding buffer (50 mM Tris-HCI, […], 5 mM KCl, 2 mM CaCl2, 5% heat-inactivated horse serum, 0.5% fetal bovine serum, adjusted to pH 7.5 with HCl) and treated with 200 μL of cAMP assay buffer (Delbecco's modified Eagle's medium containing 2 mM 3-isobutyl-1-methylxanthine, 1 mg/mL bovine serum albumin, 35 mM Hepes-NaOH, pH 7.4) and 100 μL of binding buffer containing varying amounts of peptide analog (final volume=300 μL). The medium was removed after incubation for 30 to 60 minutes at room temperature, and the cells were frozen on dry ice, lysed with 0.5 mL 50 mM HCl, and refrozen ([…]). The cAMP content of the diluted lysate was determined by radioimmunoassay. The EC50 response values were calculated using nonlinear regression (see below).
(§3) Data Calculation. Calculations were performed using Microsoft® Excel. Nonlinear regression analyses of binding and cAMP dose-response data were performed using the four-parameter equation: yp=Min+[(Max−Min)/(1+(IC50/x)^slope)]. The Excel Solver function was utilized for parameter optimization, as described previously (Carter, P. H., et al., Endocrinology 140: 4972-4981 (1999); Bowen, W. P., and Jerman, J. C., Trends in Pharmacol. Sci. 16: 413-417 (1995)). Differences between paired data sets were statistically evaluated using a one-tailed Student's t-test, assuming unequal variances for the two sets.

[2] = target: T2, wild-type human P1R (hP1R-WT) (Homo sapiens, UniProt Q03431); test: cAMP stimulation in COS-7 cells expressing hP1R-WT; type: cell-based; details: hP1R-WT, basal 10.3 ± 1.1, asterisk = plateau not attained
T2 construct: expressed in transfected cells; host or cells: COS-7 (transient, FuGENE 6)
T2 sequence (Q03431 27-593): T1 sequence (Q03431 27-593)
Method: as §1, §2, §3

[3] = target: T3, P1R-delNt, truncated human P1R deleted for residues (24-181) (Homo sapiens, UniProt Q03431); test: cAMP stimulation in COS-7 cells expressing hP1R-delNt; type: cell-based; details: hP1R-delNT, basal 9.5 ± 1.3, asterisk = plateau not attained
T3 construct: expressed in transfected cells; host or cells: COS-7 (transient, FuGENE 6)
T3 sequence (Q03431 with tags, fused parts or gaps limits assumed): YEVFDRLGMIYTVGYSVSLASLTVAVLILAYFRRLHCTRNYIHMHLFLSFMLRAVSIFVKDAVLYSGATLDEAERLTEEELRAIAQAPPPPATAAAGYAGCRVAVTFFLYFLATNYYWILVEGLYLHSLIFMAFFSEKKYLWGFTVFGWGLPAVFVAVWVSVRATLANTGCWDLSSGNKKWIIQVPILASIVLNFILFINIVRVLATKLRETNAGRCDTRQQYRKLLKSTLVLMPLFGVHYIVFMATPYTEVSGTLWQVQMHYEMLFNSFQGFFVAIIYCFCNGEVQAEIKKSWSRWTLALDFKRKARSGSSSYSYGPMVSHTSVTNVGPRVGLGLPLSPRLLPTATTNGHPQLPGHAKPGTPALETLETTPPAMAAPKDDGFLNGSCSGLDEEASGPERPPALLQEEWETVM
Method: as §1, §2, §3
The possibility that the activity-enhancing effects of the Aib substitutions at positions 1 and 3 were mediated through the juxtamembrane (J) region of the receptor was investigated in COS-7 cells transiently transfected with P1R-delNt. P1R-delNt was a truncated P1R that lacked most of the amino-terminal extracellular domain.

[4] = target: T2, wild-type human P1R (hP1R-WT); test: Competition binding in COS-7 cells expressing hP1R-WT; details: P1R-WT; Scatchard transformation of homologous competition binding; read-out: apparent equilibrium dissociation constant (KDapp)
Method: as §1
(§4) Competition Binding. Binding reactions were performed with HKRK-B28 cells or in COS-7 cells in 24-well plates. The cells were rinsed with 0.5 mL of binding buffer, and then treated successively with 100 μL binding buffer, 100 μL of binding buffer containing various amounts of unlabeled competitor ligand, and 100 μL of binding buffer containing ca. 100,000 cpm of ^125I-[M]PTH(1-21) or ^125I-[Aib^1,3,M]PTH(1-21)} (ca. 26 fmol; final volume=300 μL). Incubations were 4 to 6 h at 4° C., at which time near equilibrium conditions were attained. Cells were then placed on ice, the binding medium was removed, and the monolayer was rinsed three times with 0.5 mL of cold binding buffer. The cells were subsequently lysed with 0.5 mL […] and counted for radioactivity. For each tracer and in each experiment, the non-specific binding was determined as the radioactivity that bound in the presence of the same unlabeled peptide at a concentration of 1 μM, and was ˜1% of total radioactivity added for each tracer. The maximum specific binding (B0) was the total radioactivity bound in the absence of competing ligand, corrected for nonspecific binding, and for each tracer, ranged from 8% to 20% of the total radioactivity added. Nonlinear regression was used to calculate binding IC50 values (see below). Scatchard transformations of homologous competition binding data derived from studies with 26 fmol of ^125I-[Aib^1,3,M]PTH(1-21) were employed for estimations of apparent equilibrium dissociation constant (kDapps) and total number of ligand binding sites (Bmax), assuming a single class of binding sites and equal affinities of the iodinated and non iodinated ligand.
Data Calculation. Calculations were performed using Microsoft® Excel. Nonlinear regression analyses of binding and cAMP dose-response data were performed using the four-parameter equation: yp=Min+[(Max−Min)/(1+(IC50/x)^slope)]. […] Differences between paired data sets were statistically evaluated using a one-tailed Student's t-test, assuming unequal variances for the two sets. […]

[5] = target: T3, P1R-delNt, truncated human P1R deleted for residues (24-181); test: Competition binding in COS-7 cells expressing hP1R-delNt; details: COS-7 cells
[6] = target: T1, human P1R; test: Competition binding in HKRK-B28 cells; details: HKRK-B28 cells
Method: as §1, §4, §3
The P1R-binding properties of these analogs were assayed in competition studies performed in […]. In previous studies, PTH(1-14) binding could not be detected using ^125I-PTH(1-34) and related N-terminally intact and relatively unmodified radioligands (Luck, M. D., et al., Molecular Endocrinology 13:670-680 (1999)). […]

[7] = target: T4, PTH-1 receptor endogenously expressed in SaOS-2 cells (Homo sapiens, UniProt Q03431); test: cAMP stimulation in SaOS-2 cells; type: cell-based; details: for EMAX(obs.): cAMP, basal 6.4 ± 0.8
T4 construct: endogenously expressed relatively low levels of the PTH-1 receptor; endogenous in cells; host or cells: SaOS-2 (SaOS-2-B10) human osteosarcoma cells
T4 sequence (Q03431 27-593): T1 sequence (Q03431 27-593)
Method: as §1, §2, §3
The number of PTH-1 receptors expressed on the surface of the PTH target cells in bone or kidney is uncertain, but it is likely to be considerably lower than that found in HKRK-B28 cells. Therefore, several of the Aib-mounted PTH analogs were evaluated using SaOS-2 cells.

[8] = target: T1, human P1R; details: HKRK-B28 cells; previously shown (Shimizu et al., Endocrinology 2001); read-out: cAMP EC50; cited from earlier work

cAMP EMax(obs.) [1] [pmole/well] | cAMP EMax(obs.) [2] [pmole/well] | cAMP EMax(obs.) [3] [pmole/well] | Kd [4] [µM] | affinity at P1R-delNt, fold weaker than at P1R-WT [5] [fold] | Binding IC50 ([5]; hP1R-delNT, tracer 125I-[Aib^1,3,M]PTH(1-21), N.B. = no inhibition of tracer binding) | fold improvement of apparent binding affinity relative to [M]PTH(1-14) [6] | fold more potent in stimulating cAMP formation than [M]PTH(1-14) [7] [fold] | EMAX(obs.) [7] [pmole/well] | Compound | EC50 [8] [µM]
284 ± 76 | 300 ± 30 | 240 ± 20 | 0.017 ± 0.002 | < 2 | effectively inhibited the binding | – | – | – | CCCC[C@H](NC(=O)[C@H](CC(C)C)NC(=O)[C@H](CCC(N)=O)NC(=O)[C@@H](NC(=O)[C@H](CCC(=O)O)NC(=O)C(C)(C)NC(=O)[C@@H](NC(=O)C(C)(C)N)C(C)C)[C@@H](C)CC)C(=O)N[C@@H](Cc1c[nH]cn1)C(=O)N[C@@H](CCC(N)=O)C(=O)N[C@@H](CCCCNC(=N)N)C(=O)N[C@@H](C)C(=O)N[C@@H](CCCCN)C(=O)N[C@@H](Cc1c[nH]c2ccccc12)C(=O)N[C@@H](CC(C)C)C(=O)N[C@@H](C)C(=O)N[C@@H](CO)C(=O)N[C@H](C(=O)N[C@@H](CCCNC(=N)N)C(=O)N[C@@H](CCCNC(=N)N)C(=O)N[C@@H](Cc1ccc(O)cc1)C(N)=O)C(C)C [[Aib^1,3,M]PTH(1-21), AibValAibGluIleGlnLeuNleHisGlnHarAlaLysTrpLeu-AlaSerValArgArtTyr] (H-[Aib]V[Aib]EIQL[Nle]HQ[hArg]AKWLASVRRY-NH2) | –
273 ± 6 | – | – | – | – | – | approximately 10 fold | 15 | 340 ± 30 | CC[C@H](C)[C@H](NC(=O)[C@H](CCC(=O)O)NC(=O)[C@H](C)NC(=O)[C@@H](NC(=O)C(C)(C)N)C(C)C)C(=O)N[C@@H](CCC(N)=O)C(=O)N[C@@H](CC(C)C)C(=O)N[C@@H](CCSC)C(=O)N[C@@H](Cc1c[nH]cn1)C(=O)N[C@@H](CCC(N)=O)C(=O)N[C@@H](CCCCNC(=N)N)C(=O)N[C@@H](C)C(=O)N[C@@H](CCCCN)C(=O)N[C@@H](Cc1c[nH]c2ccccc12)C(N)=O [Aib-1, AibValAlaGluIleGlnLeuMetHisGlnHarAlaLysTrp] (H-[Aib]VAEIQLMHQ[hArg]AKW-NH2) | –
269 ± 7 | – | – | – | – | – | approximately 10 fold | 8 | 330 ± 30 | CC[C@H](C)[C@H](NC(=O)[C@H](CCC(=O)O)NC(=O)C(C)(C)NC(=O)[C@@H](NC(=O)[C@H](C)N)C(C)C)C(=O)N[C@@H](CCC(N)=O)C(=O)N[C@@H](CC(C)C)C(=O)N[C@@H](CCSC)C(=O)N[C@@H](Cc1c[nH]cn1)C(=O)N[C@@H](CCC(N)=O)C(=O)N[C@@H](CCCCNC(=N)N)C(=O)N[C@@H](C)C(=O)N[C@@H](CCCCN)C(=O)N[C@@H](Cc1c[nH]c2ccccc12)C(N)=O [Aib-3, AlaValAibGluIleGlnLeuMetHisGlnHarAlaLysTrp] (H-AV[Aib]EIQLMHQ[hArg]AKW-NH2) | –
– | – | – | – | – | – | – | – | – | [Ala^3,Gln^10]PTH(1-10) (SVAEIQLMHQ-NH2; UniProt P01270 32-41, looked up, variant S3A N10Q) | ~800

— patent US7572765B2, “Conformationally constrained parathyroid hormone (PTH) analogs” (The General Hospital Corporation, priority 2001, dated 2009)
